According to ChEMBL document CHEMBL4024704, “Idiopathic Pulmonary Fibrosis: Current Status, Recent Progress, and Emerging Targets” (J Med Chem, 2017):

Legend:
[1] = Inhibition of TGF-beta (unknown origin); design: species or system Homo sapiens
[2] = target: Disintegrin and metalloproteinase domain-containing protein 17 (Homo sapiens, UniProt P78536); assay: Inhibition of recombinant TACE catalytic domain (unknown origin) using pro-TNFalpha peptide Abz-LAQAVRSSSR-Dpa as substrate preincubated for 10 mins followed by substrate addition measured after 10 mins by FRET assay
Chain of Disintegrin and metalloproteinase domain-containing protein 17 (P78536 whole entry, the tested form may be a part): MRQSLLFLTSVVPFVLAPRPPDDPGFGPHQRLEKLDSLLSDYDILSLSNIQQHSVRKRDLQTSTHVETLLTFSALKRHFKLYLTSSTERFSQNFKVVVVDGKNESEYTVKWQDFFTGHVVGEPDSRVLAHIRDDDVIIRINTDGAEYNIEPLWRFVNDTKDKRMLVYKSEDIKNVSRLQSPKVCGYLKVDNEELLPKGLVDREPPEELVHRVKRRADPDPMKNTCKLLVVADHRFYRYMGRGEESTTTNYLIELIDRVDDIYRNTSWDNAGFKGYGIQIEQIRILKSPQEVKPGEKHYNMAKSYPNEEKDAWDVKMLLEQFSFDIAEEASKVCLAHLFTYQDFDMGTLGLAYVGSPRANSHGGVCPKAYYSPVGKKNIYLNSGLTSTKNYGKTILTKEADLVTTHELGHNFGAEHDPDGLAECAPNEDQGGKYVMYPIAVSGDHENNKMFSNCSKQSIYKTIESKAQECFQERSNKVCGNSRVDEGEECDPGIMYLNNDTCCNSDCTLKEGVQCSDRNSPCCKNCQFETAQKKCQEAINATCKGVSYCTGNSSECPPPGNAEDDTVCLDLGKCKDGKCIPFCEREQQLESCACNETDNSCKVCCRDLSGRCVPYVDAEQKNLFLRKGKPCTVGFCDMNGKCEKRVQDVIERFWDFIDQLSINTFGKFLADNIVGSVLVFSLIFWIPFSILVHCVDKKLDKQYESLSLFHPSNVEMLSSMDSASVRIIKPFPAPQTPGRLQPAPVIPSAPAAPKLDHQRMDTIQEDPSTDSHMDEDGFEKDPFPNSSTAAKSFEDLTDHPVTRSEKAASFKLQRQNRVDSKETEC

NIH3T3 [3] = assay: Antiproliferative activity against mouse NIH/3T3 cells by MTT assay; assay type: cell-based
Cathepsin B = Cathepsin B (Homo sapiens, UniProt P07858); assay: Inhibition of human liver cathepsin B using Boc-Leu-Arg-Arg-AMC as substrate preincubated for 15 mins followed by substrate addition measured after 30 mins by spectrofluorimetric analysis
[4] = Inhibition of Wnt/beta-catenin signaling in human NL-20 cells by beta-catenin-based reporter assay; assay type: cell-based; settings: NL20
A549 [5] = assay: Anticancer activity against human A549 cells after 24 hrs by cell titer 96 aqueous one solution based assay; assay type: functional; settings: A549, 24 h
NIH3T3 [6] = assay: Antiproliferative activity against mouse NIH/3T3 cells after 72 hrs by MTT assay; assay type: cell-based; settings: NIH3T3, 72 h
[7] = target: T1, Interleukin-8 receptors, CXCR1/CXCR2 (Homo sapiens) (UniProt P25025+P25024); assay: Inhibition of GROalpha interaction with CXCR1/CXCR2 in human PMN leukocytes assessed as reduction in leukocyte migration after 5 days in presence of Diff-Quick staining by matrigel based microscopic analysis; assay type: cell-based; settings: concentration not given here
[8] = target: T1, Interleukin-8 receptors, CXCR1/CXCR2 (Homo sapiens); assay: Inhibition of […] interaction with CXCR1/CXCR2 in human PMN leukocytes assessed as reduction in leukocyte migration after 5 days in presence of Diff-Quick staining by matrigel based microscopic analysis; assay type: cell-based; settings: concentration not given here
[9] = target: T1, Interleukin-8 receptors, CXCR1/CXCR2 (Homo sapiens); assay: Inhibition of IL-8 interaction with CXCR1/CXCR2 in human PMN leukocytes assessed as reduction in leukocyte migration after 5 days in presence of Diff-Quick staining by matrigel based microscopic analysis; assay type: cell-based; settings: concentration not given here
Rattus norvegicus [10] = assay: Antifibrotic activity in […] rat bleomycin-induced pulmonary fibrosis model assessed as hydroxyproline content in lung at 0.04 g/day administered via oral gavage by spectrophotometric analysis; assay type: functional
A549 [11] = assay: Antiproliferative activity against human A549 cells after 72 hrs by MTT assay; assay type: functional, cell-based; settings: A549, 72 h
Rattus norvegicus [12] = assay: Anti-inflammatory activity in Sprague-Dawley rat assessed as inhibition of LPS-induced TNFalpha production administered via oral gavage for 1 hr followed by LPS challenge measured after 1.5 hrs by ELISA; assay type: functional
NIH3T3 [13] = assay: Antiproliferative activity against mouse NIH/3T3 cells; assay type: cell-based
[14] = Elimination half life in healthy human at 801 mg; assay type: ADME; settings: in vivo, read-out: beta t1/2 (converted)
[15] = target: T2, Mitogen-activated protein kinase kinase kinase 5 (Homo sapiens, UniProt Q99683); assay: Inhibition of recombinant human ASK1 using STK3 peptide as substrate incubated for 30 mins followed by ATP addition measured for 3 hrs by TR-FRET assay
T2 sequence (Q99683 whole entry): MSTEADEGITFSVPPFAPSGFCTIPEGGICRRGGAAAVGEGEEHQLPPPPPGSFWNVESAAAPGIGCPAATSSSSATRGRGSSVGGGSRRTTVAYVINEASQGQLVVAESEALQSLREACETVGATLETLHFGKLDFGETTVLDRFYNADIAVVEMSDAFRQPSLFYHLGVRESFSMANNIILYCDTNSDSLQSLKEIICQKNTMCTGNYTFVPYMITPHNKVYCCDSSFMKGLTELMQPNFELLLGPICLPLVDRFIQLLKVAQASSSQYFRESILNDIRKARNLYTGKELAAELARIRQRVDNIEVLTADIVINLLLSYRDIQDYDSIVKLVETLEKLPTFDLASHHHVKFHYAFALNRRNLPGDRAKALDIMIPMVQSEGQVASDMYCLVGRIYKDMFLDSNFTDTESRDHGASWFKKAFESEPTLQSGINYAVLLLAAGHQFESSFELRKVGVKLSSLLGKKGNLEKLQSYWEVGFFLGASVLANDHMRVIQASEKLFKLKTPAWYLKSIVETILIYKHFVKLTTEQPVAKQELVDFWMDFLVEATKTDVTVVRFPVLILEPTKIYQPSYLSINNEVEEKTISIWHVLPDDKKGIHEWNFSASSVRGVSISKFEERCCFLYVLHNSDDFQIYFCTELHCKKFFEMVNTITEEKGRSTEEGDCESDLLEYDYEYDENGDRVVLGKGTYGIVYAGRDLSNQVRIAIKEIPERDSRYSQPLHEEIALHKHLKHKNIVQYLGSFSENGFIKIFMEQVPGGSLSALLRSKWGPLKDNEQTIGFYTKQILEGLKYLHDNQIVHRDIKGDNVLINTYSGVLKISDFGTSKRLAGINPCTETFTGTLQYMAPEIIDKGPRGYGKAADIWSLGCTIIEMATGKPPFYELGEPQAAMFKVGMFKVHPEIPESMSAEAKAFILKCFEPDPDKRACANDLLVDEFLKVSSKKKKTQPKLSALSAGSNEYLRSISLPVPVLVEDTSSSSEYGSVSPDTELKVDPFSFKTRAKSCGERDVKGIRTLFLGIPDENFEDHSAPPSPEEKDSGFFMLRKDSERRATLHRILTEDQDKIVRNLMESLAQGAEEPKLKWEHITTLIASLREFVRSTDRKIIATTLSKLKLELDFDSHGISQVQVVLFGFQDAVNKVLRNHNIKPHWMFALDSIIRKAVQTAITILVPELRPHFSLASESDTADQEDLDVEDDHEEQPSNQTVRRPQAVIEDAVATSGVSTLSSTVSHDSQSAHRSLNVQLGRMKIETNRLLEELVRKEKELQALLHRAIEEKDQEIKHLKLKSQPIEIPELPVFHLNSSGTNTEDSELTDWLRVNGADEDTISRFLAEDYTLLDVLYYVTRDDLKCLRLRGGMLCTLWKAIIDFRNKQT

NIH3T3 [16] = assay: Anticancer activity against mouse NIH/3T3 cells after 24 hrs by cell titer 96 aqueous one solution based assay; settings: NIH3T3, 24 h

## NC(=O)c1cnccc1Nc1nc(-c2cc(Cl)ccc2F)nc2ncccc12
[1]
  IC50: 0.02 µM

## CNC(=O)c1cnccc1Nc1nc(-c2cc(Cl)ccc2F)nc2ncccc12
[1]
  IC50: 0.07 µM

## Cc1cc(COc2ccc(S(=O)(=O)N[C@@H]3CCC[C@@H]3C(=O)NO)cc2)c2ccccc2n1
[2]
  IC50: 0.0006 µM

## O=c1ccc2c(n1-c1ccc(Br)cc1)CCCC2O (stereo not given)
NIH3T3 [3]
  IC50: 300 µM

## COc1ccc2c(O[C@@H]3C[C@H](C(=O)N[C@@H](CC4CC4)C(=O)C(=O)NC4CC4)N(C[C@@H](NC(=O)NC(C)(C)C)C(C)(C)C)C3)nccc2c1
Cathepsin B
  IC50: 0.027 µM

## Nc1cncc(-c2cnc3[nH]nc(-c4nc5c(-c6cccc(F)c6)cncc5[nH]4)c3c2)c1
[4]
  IC50: 0.175 µM

## Cc1cccc(-n2cc(CNc3ccccc3)ccc2=O)c1
A549 [5]
  IC50: 130 µM

## O=c1ccc(CNc2ccccc2F)cn1Cc1ccccc1
NIH3T3 [6]
  IC50: 3 µM

## C[C@@H](C(=O)NCCN1CCCC1)c1ccc(OS(=O)(=O)C(F)(F)F)cc1
[7]
  inhibition: 0%
[8]
  inhibition: 65%
[9]
  inhibition: 52%

## C[C@@H](C(=O)NCCCN1CCCC1)c1ccc(OS(=O)(=O)C(F)(F)F)cc1
[7]
  inhibition: 0%
[8]
  inhibition: 67%
[9]
  inhibition: 51%

## CCOc1ccc(-n2c(N)c(C#N)c(-c3ccccc3)c(C#N)c2=O)cc1
Rattus norvegicus [10]
  Activity: 48.55 µmol

## COc1ccc(Cn2cc(COc3ccc(F)cc3)ccc2=O)cc1
A549 [11]
  IC50: 20 µM
NIH3T3 [6]
  IC50: 55 µM

## CCC(=O)NC1CCC(c2nc(-c3cc(C(F)(F)F)ccc3OC3CC3)c3c(n2)C(C(=O)NC)C(C)N3)CC1 (stereo not given)
Rattus norvegicus [12]
  inhibition (INH): 7 - 99%

## CC(C)Nc1cncc(-c2cnc3[nH]nc(-c4nc5c(-c6cncc(F)c6)cncc5[nH]4)c3c2)c1
[4]
  IC50: 0.067 µM

## Cc1cc(CC(C)C)ccc1CC(=O)NS(C)(=O)=O
[7]
  inhibition: 0%
[9]
  inhibition: 67%

## CNC(=O)C1c2nc(C3CCC(NC(=O)COC)CC3)nc(-c3ccc(F)cc3OC3CC3)c2NC1C (stereo not given)
Rattus norvegicus [12]
  inhibition (INH): 7 - 99%

## CO[C@H]1O[C@H](CNc2ccccc2Cn2cc(C(F)(F)F)ccc2=O)[C@@H](O)[C@H](O)[C@H]1O
NIH3T3 [13]
  IC50: 170 µM

## CNC(=O)C1c2nc(C3CCC(NC(=O)COC)CC3)nc(-c3cc(C)ccc3OC3CC3)c2NC1C (stereo not given)
Rattus norvegicus [12]
  inhibition (INH): 7 - 99%

## Cc1cccc(NCc2ccc(=O)n(Cc3ccccc3)c2)c1
A549 [11]
  IC50: 130 µM

## CCOc1ccc(-n2c(C)cc(C)c(C#N)c2=O)cc1
Rattus norvegicus [10]
  Activity: 119.55 µmol

## CNC(=O)C1c2nc(C3CCC(NC(=O)COC)CC3)nc(-c3cc(C(F)(F)F)ccc3OC3CC3)c2NC1C (stereo not given)
Rattus norvegicus [12]
  inhibition (INH): 7 - 99%

## Cc1ccc(=O)n(-c2ccccc2)c1 [PIRFENIDONE]
Rattus norvegicus [10]
  Activity: 158.39 µmol
NIH3T3 [6]
  IC50: 454 µM
[14]
  half-life: 3 h

## O=C(O)c1cc2c(O)cccc2n(-c2ccc(F)cc2Cl)c1=O
NIH3T3 [3]
  IC50: 90 µM

## CN(C)c1cncc(-c2cnc3[nH]nc(-c4nc5c(-c6cccc(F)c6)cncc5[nH]4)c3c2)c1
[4]
  IC50: 0.44 to 1.9 µM

## CC(n1cnnc1-c1nc(NC(=O)c2cc(-n3cnc(C4CC4)c3)c(N3CCCCC3)cn2)cs1)C(F)(F)F (stereo not given)
[15]
  IC50: 0.0007 µM

## CN(C)c1cncc(-c2cnc3[nH]nc(-c4nc5c(-c6cccs6)cncc5[nH]4)c3c2)c1
[4]
  IC50: 1.09 µM

## CCC(=O)c1cccc(CC(=O)O)c1Cl
[7]
  inhibition: 27%
[9]
  inhibition: 67%

## O=c1ccc(COc2ccccc2)cn1-c1ccc(Cl)cc1
NIH3T3 [16]
  IC50: 14 µM

## Cc1cccc(-n2cc(COc3ccccc3)ccc2=O)c1
NIH3T3 [16]
  IC50: 16 µM

## Cc1ccc(=O)n(-c2cccc(F)c2)c1 [FLUOROFENIDONE]
NIH3T3 [3]
  IC50: 4200 µM

## CNC(=O)C1c2nc(C3CCC(NC(C)=O)CC3)nc(-c3cc(C(F)(F)F)ccc3OC3CC3)c2NC1C (stereo not given)
Rattus norvegicus [12]
  inhibition (INH): 7 - 99%
